Results taken from patent US20100093865A1, “SULPHUR-LINKED COMPOUNDS FOR TREATING OPHTHALMIC DISEASES AND DISORDERS” (Acucela, Inc., priority 2008, published 2010).

What was measured:
isomerase = molecular target: T1, isomerase (Mus musculus, UniProt Q91ZQ5); test: In vivo murine isomerase assay; details: oral, mice, 11-cis-retinal (oxime) recovery after photobleaching
T1 construct: from tissue; host or cells: eye of living mice (CD-1; Balb/c also mentioned)
T1 sequence (Q91ZQ5 1-533): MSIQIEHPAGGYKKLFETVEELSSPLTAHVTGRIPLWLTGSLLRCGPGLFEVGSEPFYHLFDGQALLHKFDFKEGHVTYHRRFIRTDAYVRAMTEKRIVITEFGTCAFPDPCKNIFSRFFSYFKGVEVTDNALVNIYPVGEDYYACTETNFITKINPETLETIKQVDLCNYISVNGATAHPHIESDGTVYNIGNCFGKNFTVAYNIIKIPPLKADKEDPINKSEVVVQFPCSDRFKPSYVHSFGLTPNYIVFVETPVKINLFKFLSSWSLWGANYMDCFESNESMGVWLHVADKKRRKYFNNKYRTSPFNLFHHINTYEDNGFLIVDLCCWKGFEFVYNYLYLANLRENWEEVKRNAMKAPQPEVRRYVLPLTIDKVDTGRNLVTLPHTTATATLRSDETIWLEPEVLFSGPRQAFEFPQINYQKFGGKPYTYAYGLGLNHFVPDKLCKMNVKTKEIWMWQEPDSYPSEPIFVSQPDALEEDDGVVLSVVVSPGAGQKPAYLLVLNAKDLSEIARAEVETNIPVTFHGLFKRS
Experimental: The capability of sulphur-linked compounds to inhibit isomerase is determined by an in vivo murine isomerase assay. Brief exposure of the eye to intense light (“photobleaching” of the visual pigment or simply “bleaching”) is known to photo-isomerize almost all 11-cis-retinal in the retina. The recovery of 11-cis-retinal after bleaching can be used to estimate the activity of isomerase in vivo. Delayed recovery, as represented by lower 11-cis-retinal oxime levels, indicates inhibition of isomerization reaction. […] See also Deigner et al., Science, 244: 968-71 (1989); Gollapalli et al., Biochim Biophys Acta. 1651: 93-101 (2003); Parish, et al., Proc. Natl. Acad. Sci. USA, 14609-13 (1998); Radu, et al., Proc Natl Acad Sci USA 101: 5928-33 (2004).
About six-week old dark-adapted CD-1 (albino) male mice are orally gavaged with compound (0.01-25 mg/kg) dissolved in an appropriate amount of oil (about 100 μl corn oil containing 10% ethanol, at least five animals per group). Mice are gavaged with the sulphur-linked compounds described in the present disclosure. After about 2-24 hours in the dark, the mice are exposed to photobleaching of about 5,000 lux of white light for 10 minutes. The mice are allowed to recover for about 2 hours in the dark. The animals are then sacrificed by carbon dioxide inhalation. Retinoids are extracted from the eye and the regeneration of 11-cis-retinal is assessed at various time intervals.
All steps are performed in darkness with minimal redlight illumination (low light darkroom lights and red filtered flashlights for spot illumination as needed) (see, e.g., Maeda et al., J. Neurochem 85:944-956, 2003; Van Hooser et al., J Biol Chem 277:19173-82, 2002). After the mice are sacrificed, the eyes are immediately removed and placed in liquid nitrogen for storage.
The eyes are placed in about 500 μL of bis-tris propane buffer (10 mM, pH ˜7.3) and about 20 μL of 0.8M hydroxylamine (pH-7.3). The eyes are cut up into small pieces with small iris scissors and then thoroughly homogenized at 30000 rpm with a mechanical homogenizer (Polytron PT 1300 D) in the tube until no visible tissue remains. About […] of methanol and about 500 μL of heptane are added to each tube. The tubes are attached to a vortexer so that the contents are mixed thoroughly for about 15 minutes in room temperature. The organic phase is separated from the aqueous phase by centrifugation for about 10 min at 13K rpm, 4° C. 240 μL of the solution from the top layer (organic phase) is removed and transferred to clean 300 μl glass inserts in HPLC vials using glass pipette and the vials are crimped shut tightly.
The samples are analyzed on an Agilent 1100 HPLC system with normal phase column: SILICA (Beckman Coutlier, dp 5 μm, […]). The running method has a flow rate of 1.5 ml/min; solvent components are 15% solvent 1 (1% isopropanol in ethyl acetate), and 85% solvent 2 (100% hexanes). Loading volume for each sample is about 100 μl; detection wavelength is 360 nm. The area under the curve for 11-cis-retinal oxime is calculated by Agilent Chemstation software and recorded manually. Data processing is performed using Prizm software.
[…] control mice (no compound administered) are sacrificed fully dark-adapted and the eye retinoids analyzed. Light (bleached) control mice (no compound administered) are sacrificed and retinoids isolated and analyzed immediately after light treatment.
A dose response in vivo isomerase inhibition study is performed with the compounds of the present disclosure. Male or female mice (such as Balb/c mice) (at least about 8/group) are dosed orally with about 0.01 to 25 mg/kg of the compounds of HCl salts of the compounds in sterile water as solution, and photobleached about 4 hours after dosing. Recovery and retinoid analysis is performed as described above. Dark control mice are vehicle-only treated, sacrificed fully dark adapted without light treatment, and analyzed. […]

[1] = molecular target: T2, recombinant human RPE65 and LRAT (visual cycle isomerase) (Homo sapiens, UniProt Q16518); test: Human in vitro isomerase inhibition assay; assay type: biochemical
T2 construct: expressed in transfected cells; host or cells: HEK293 cell clone (homogenate); CRALBP made in E. coli TOP10
T2 sequence (Q16518 2-533 limits assumed): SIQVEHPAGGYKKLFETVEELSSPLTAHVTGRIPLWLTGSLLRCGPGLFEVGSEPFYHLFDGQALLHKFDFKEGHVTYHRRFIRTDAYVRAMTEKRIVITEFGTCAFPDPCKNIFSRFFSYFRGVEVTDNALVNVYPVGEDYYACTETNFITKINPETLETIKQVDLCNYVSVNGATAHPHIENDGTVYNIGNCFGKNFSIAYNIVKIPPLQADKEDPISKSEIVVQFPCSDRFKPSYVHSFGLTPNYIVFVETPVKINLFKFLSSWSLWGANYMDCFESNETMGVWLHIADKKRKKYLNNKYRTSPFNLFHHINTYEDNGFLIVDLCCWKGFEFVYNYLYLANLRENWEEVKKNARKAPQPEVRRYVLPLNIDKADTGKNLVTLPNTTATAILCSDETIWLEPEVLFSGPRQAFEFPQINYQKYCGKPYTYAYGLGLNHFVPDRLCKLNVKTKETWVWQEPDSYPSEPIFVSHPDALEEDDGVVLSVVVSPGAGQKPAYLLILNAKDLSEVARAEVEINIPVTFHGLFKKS
Experimental: The capability of sulphur-linked compounds to inhibit the activity of a visual cycle isomerase was determined in vitro either in a human or bovine-based assay system.
Recombinant human apo cellular retinaldehyde-binding protein (CRALBP) was cloned and expressed according to standard methods in the molecular biology art (see Crabb et al., Protein Science 7:746-57 (1998); Crabb et al., J. Biol. Chem. 263:18688-92 (1988)). Briefly, total RNA was prepared from confluent ARPE19 cells (American Type Culture Collection, Manassas, Va.), cDNA was synthesized using an oligo(dT)12-18 primer, and then DNA encoding CRALBP was amplified by two sequential polymerase chain reactions (see Crabb et al., J. Biol. Chem. 263:18688-92 (1988); Intres, et al., J. Biol. Chem. 269:25411-18 (1994); GenBank Accession No. L34219.1). The PCR product was sub-cloned into pTrcHis2-TOPO TA vector according to the manufacturer's protocol (Invitrogen Inc., Carlsbad, Calif.; catalog no. K4400-01), and then the sequence was confirmed according to standard nucleotide sequencing techniques. Recombinant 6×His-tagged human CRALBP was expressed in One Shot TOP 10 chemically competent E. coli cells (Invitrogen), and the recombinant polypeptide was isolated from E. coli cell lysates by nickel affinity chromatography using nickel (Ni) Sepharose XK16-20 columns for HPLC (Amersham Bioscience, Pittsburgh, Pa.; catalog no. 17-5268-02). The purified 6×His-tagged human CRALBP was dialyzed against 10 mM bis-tris-Propane (BTP) and analyzed by SDS-PAGE. The molecular weight of the recombinant human CRALBP was approximately 39 kDal.
The concentration dependent effect of the compounds disclosed herein on the retinol isomerization reaction were evaluated with a recombinant human enzyme system. […] A homogenate of HEK293 cell clone expressing recombinant human RPE65 and LRAT were the source of the visual enzymes, and exogenous all-trans-retinol (about 20 μM) was used as the substrate. Recombinant human CRALBP (about 80 ug/mL) was added to enhance the formation of 11-cis-retinal. The 200 μL Bis-Tris Phosphate buffer (10 mM, pH 7.2) based reaction mixture also contains 0.5% BSA, and 1 mM NaPPi. In this assay, the reaction was carried out at 37° C. in duplicates for one hour and was terminated by addition of 300 μL methanol. The amount of reaction product, 11-cis-retinol, was measured by HPLC analysis following Heptane extraction of the reaction mixture. […] The ability of the compounds disclosed herein to inhibit isomerization reaction is quantified and the respective IC50 value is determined. Table 2 summarizes the IC50 values of all the compounds of the present disclosure. […] The production of 11-cis-retinol was measured at different doses of compound administration.

| Compound | % Inibition 1.0 mg/kg, 4 h (isomerase) [%] | inhibition of 11-cis-retinol production [1] | % Inibition 0.3 mg/kg, 4 h (isomerase) [%] |
| --- | --- | --- | --- |
| [2H]C([2H])(Sc1cccc(C(O)CCN)c1)C1CCCCC1 (centres unmarked) [Example 49, 3-amino-1-(3-(cyclohexyldideuteromethylthio)phenyl)propan-1-ol] | −8.5 | – | – |
| NCCCc1cccc(S(=O)(=O)CC2CCCCC2)c1 [Example 5, 3-(3-(cyclohexylmethylsulfonyl)phenyl)propan-1-amine] | −12.1 | dose-dependent inhibition | 1.1 |
| NCCC(O)c1cccc(S(=O)(=O)CC2CCCCC2)c1 (centres unmarked) [Example 9, 3-amino-1-(3-(cyclohexylmethylsulfonyl)phenyl)propan-1-ol] | 20.3 | – | 3.7 |
| NCCC(O)c1cccc(SCC2CCCCC2)c1 (centres unmarked) [Example 8, 3-amino-1-(3-(cyclohexylmethylthio)phenyl)propan-1-ol] | −14.2 | – | – |
| NC/C=C/c1cccc(SCC2CCCCC2)c1 [Example 11, (E)-3-(3-(cyclohexylmethylthio)phenyl)prop-2-en-1-amine] | – | dose-dependent inhibition | – |
| [2H]C([2H])(N)CC(O)c1cccc(SCC2CCCCC2)c1 (centres unmarked) [Example 45, 3-amino-1-(3-(cyclohexylmethylthio)phenyl)-3,3-dideuteropropan-1-ol] | 87.1 | – | – |
| NCCC(=O)c1cccc(S(=O)(=O)CC2CCCCC2)c1 [Example 10, 3-amino-1-(3-(cyclohexylmethylsulfonyl)phenyl)propan-1-one] | 79.3 | – | – |
| [2H]C([2H])(C1CCCCC1)S(=O)(=O)c1cccc(C(O)CCN)c1 (centres unmarked) [Example 50, 3-amino-1-(3-(cyclohexyldideuteromethylsulfonyl)phenyl)propan-1-ol] | −1.6 | – | – |
| CCCCSc1cccc([C@H](O)CCN)c1 [Example 18, (R)-3-amino-1-(3-(butylthio)phenyl)propan-1-ol] | 68.6 | – | – |
| NCCC(O)c1cccc(SCC2(O)CCCCC2)c1 (centres unmarked) [Example 27, 1-((3-(3-amino-1-hydroxypropyl)phenylthio)methyl)cyclohexanol] | 14.8 | – | – |
| [2H]C1([2H])C([2H])([2H])C([2H])([2H])C([2H])(CSc2cccc(C(O)CCN)c2)C([2H])([2H])C1([2H])[2H] (centres unmarked) [Example 53, 3-amino-1-(3-((perdeuterocyclohexyl)methylthio)phenyl)propan-1-ol] | −4.9 | – | – |
| NCC[C@@H](O)c1cccc(SCC2CCCCC2)c1 [Example 17, (R)-3-amino-1-(3-(cyclohexylmethylthio)phenyl)propan-1-ol] | 33.4 | dose-dependent inhibition | – |
| NC/C=C/c1cccc(S(=O)(=O)CC2CCCCC2)c1 [Example 14, (E)-3-(3-(cyclohexylmethylsulfonyl)phenyl)prop-2-en-1-amine] | – | dose-dependent inhibition | – |
